16 molecules from US20240415819A1, “MACROCYCLIC COMPOUNDS AS PROTEASOME SUBUNIT BETA TYPE-5 INHIBITORS” (Lead Discovery Center GmbH, priority 2021, published 2024) can be followed below.

Assay [1] relates to A549 (human lung carcinoma cell line). Description: Glo assay of A549 cells (Table 3; ProteasomeGlo plating scheme). Type of assay: cell-based. The settings on record: Homo sapiens; for pIC50: A549 cells, read-out: PGLo A549. The method, boiled down:
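Compound treatment lasts 105 minutes at 37° C. under 5% CO2. Suc-LLVY-Glo substrate premixed with detection reagent (60 min at room temperature) is then added directly to the cells, and luminescence after 10-15 min in the dark gives the IC50 in nM.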

The subject of the next assay is HT-29 cells. The experiment in a line: CellTiter-Glo luminescent cell viability assay with HT-29 cells (72h incubation). Type of assay: cell-based, human. The settings on record: Homo sapiens, HT-29, HT29 cells, read-out: CTG HT29. The method, boiled down:
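Viability read as CellTiter-Glo luminescence after 72 h compound exposure, with 10 μM staurosporine and DMSO as control wells. Seeding 400 cells per well, compound added 24 h post-plating; IC50 from curve fitting.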

pIC50: −log10 of the molar value. Read-outs that look alike come from different tables or passages of the source. Some results are limits rather than exact numbers.

Regarding `Cc1ccc2cc1CNC(=O)[C@H](CCc1ccccc1)NC(=O)[C@@H](NC(=O)OCc1ccccc1)CCC(=O)N1CCCC(CCO2)C1` (stereo partly drawn) [Compound 199, benzyl ((9S,12S)-5^4-methyl-8,11,15-trioxo-9-phenethyl-4-oxa-7,10-diaza-1(3,1)-piperidina-5(1,3)-benzenacyclopentadecaphane-12-yl)carbamate], the pIC50 (in assay [1]; with HT-29 cells) was above 7.00 throughout.
As for `CC(=O)N[C@H]1CC(=O)N2CCCC(CCOc3ccc(F)c(c3)CNC(=O)[C@H](CCc3ccccc3)NC1=O)C2` (stereo partly drawn) [Compound 205, N-((9S,12S)-5^4-fluoro-8,11,14-trioxo-9-phenethyl-4-oxa-7,10-diaza-1(3,1)-piperidina-5(1,3)-benzenacyclotetradecaphane-12-yl)acetamide], the pIC50 (in assay [1]; in the assay on HT-29 cells) was above 7.00 in each case.
As for `COc1ccc2cc1CNC(=O)[C@H](CCc1ccccc1)NC(=O)[C@@H](NC(C)=O)CC(=O)N1CCCC(CCO2)C1` (stereo partly drawn) [Compound 211, N-((9S,12S)-5^4-methoxy-8,11,14-trioxo-9-phenethyl-4-oxa-7,10-diaza-1(3,1)-piperidina-5(1,3)-benzenacyclotetradecaphane-12-yl)acetamide], the pIC50 is 6.00 to 6.30 in assay [1] and 6.30 to 7.00 in the assay with HT-29 cells.
In the case of `CC(=O)N[C@H]1CCCC(=O)N2CCCC(CCOc3ccc(C)c(c3)CNC(=O)[C@H](CCc3ccccc3)NC1=O)C2` (stereo partly drawn) [Compound 213, N-((9S,12S)-5^4-methyl-8,11,16-trioxo-9-phenethyl-4-oxa-7,10-diaza-1(3,1)-piperidina-5(1,3)-benzenacyclohexadecaphane-12-yl)acetamide], the pIC50 in assay [1] is 6.30 to 7.00; in the assay on HT-29 cells, above 7.00.
Turning to `CC(=O)N[C@H]1CCC(=O)N2CCCC(CCOc3ccc(C)c(c3)CNC(=O)[C@H](CCc3ccccc3)NC1=O)C2` (stereo partly drawn) [Compound 215, N-((9S,12S)-5^4-methyl-8,11,15-trioxo-9-phenethyl-4-oxa-7,10-diaza-1(3,1)-piperidina-5(1,3)-benzenacyclopentadecaphane-12-yl)acetamide], the results for the pIC50 (in assay [1]; with HT-29 cells) were 6.30 to 7.00 and above 7.00, respectively.
Turning to `Cc1ccc2cc1CNC(=O)[C@H](CCc1ccccc1)NC(=O)[C@@H](NS(=O)(=O)Cc1ccccc1)CC(=O)N1CCCC(CCO2)C1` (stereo partly drawn) [Compound 216, N-((9S,12S)-5^4-methyl-8,11,14-trioxo-9-phenethyl-4-oxa-7,10-diaza-1(3,1)-piperidina-5(1,3)-benzenacyclotetradecaphane-12-yl)-1-phenylmethanesulfonamide], the pIC50 was 6.30 to 7.00 in assay [1] and above 7.00 in the assay on HT-29 cells.
In the same order, the values of `Cc1ccc2cc1CNC(=O)[C@H](CCc1ccccc1)NC(=O)[C@@H](NS(=O)(=O)CCc1ccccc1)CC(=O)N1CCCC(CCO2)C1` (stereo partly drawn) [Compound 217, N-((9S,12S)-5^4-methyl-8,11,14-trioxo-9-phenethyl-4-oxa-7,10-diaza-1(3,1)-piperidina-5(1,3)-benzenacyclotetradecaphane-12-yl)-2-phenylethane-1-sulfonamide] are above 7.00 and above 7.00.
As to `COCCOCCOCCOCCOCCC(=O)N[C@H]1CC(=O)N2CCCC(CCOc3ccc(C)c(c3)CNC(=O)[C@H](CCc3ccccc3)NC1=O)C2` (stereo partly drawn) [Compound 219, N-((9S,12S)-5^4-methyl-8,11,14-trioxo-9-phenethyl-4-oxa-7,10-diaza-1(3,1)-piperidina-5(1,3)-benzenacyclotetradecaphane-12-yl)-2,5,8,11,14-pentaoxaheptadecan-17-amide], the pIC50 (in assay [1]; with HT-29 cells) was above 7.00 in each case.
For `COCCOCCOCCOC(=O)N[C@H]1CC(=O)N2CCCC(CCOc3ccc(C)c(c3)CNC(=O)[C@H](CCc3ccccc3)NC1=O)C2` (stereo partly drawn) [Compound 220, 2-(2-(2-methoxyethoxy)ethoxy)ethyl ((9R,12R)-5^4-methyl-8,11,14-trioxo-9-phenethyl-4-oxa-7,10-diaza-1(3,1)-piperidina-5(1,3)-benzenacyclotetradecaphane-12-yl)carbamate], the IC50 in assay [1] (A549, read-out: PGLo A549 [nM]) was below 100 nM. The pIC50 in the assay with HT-29 cells is above 7.00.
Take `CC(=O)N[C@H]1CC(=O)N2CCOC(CCOc3ccc(C)c(c3)CNC(=O)[C@H](CCc3ccccc3)NC1=O)C2` (stereo partly drawn) [Compound 258, N-((9S,12S)-5^4-methyl-8,11,14-trioxo-9-phenethyl-4-oxa-7,10-diaza-1(2,4)-morpholina-5(1,3)-benzenacyclotetradecaphane-12-yl)acetamide]: the pIC50 was 6.00 to 6.30 in assay [1] and 6.30 to 7.00 with HT-29 cells.
In the same order, the values of `CC(=O)N[C@H]1CCCC(=O)N2CCC2(C)COc2ccc(C)c(c2)CNC(=O)[C@H](CCc2ccccc2)NC1=O` (stereo partly drawn) [Compound 281, N-((8S,11S)-1^2,4^4-dimethyl-7,10,15-trioxo-8-phenethyl-3-oxa-6,9-diaza-1(2,1)-azetidina-4(1,3)-benzenacyclopentadecaphane-11-yl)acetamide] are 5.30 to 6.00 and 6.30 to 7.00.
On to `CC(=O)N[C@H]1CCC(=O)N(C)CCCCOc2ccc(C)c(c2)CNC(=O)[C@H](CCc2ccccc2)NC1=O` [Compound 282, N-((11S,14S)-1^4,7-dimethyl-8,12,15-trioxo-1^4-phenethyl-2-oxa-7,13,16-triaza-1(1,3)-benzenacycloheptadecaphane-11-yl)acetamide], for which the pIC50 in assay [1] is below 5.30; in the assay with HT-29 cells, 6.30 to 7.00.
As for `Cc1ccc2cc1CNC(=O)[C@H](CCc1ccccc1)NC(=O)[C@@H](NC(=O)C(C)(C)CO)CC(=O)N1CCCC(CCO2)C1` (stereo partly drawn) [Compound 284, 3-hydroxy-2,2-dimethyl-N-((9S,12S)-5^4-methyl-8,11,14-trioxo-9-phenethyl-4-oxa-7,10-diaza-1(3,1)-piperidina-5(1,3)-benzenacyclotetradecaphane-12-yl)propanamide], the pIC50 is 6.30 to 7.00 in assay [1] and above 7.00 in the assay with HT-29 cells.
In the same order, the values of `CCC(CC)(CO)C(=O)N[C@H]1CC(=O)N2CCCC(CCOc3ccc(C)c(c3)CNC(=O)[C@H](CCc3ccccc3)NC1=O)C2` (stereo partly drawn) [Compound 285, 2-ethyl-2-(hydroxymethyl)-N-((9S,12S)-5^4-methyl-8,11,14-trioxo-9-phenethyl-4-oxa-7,10-diaza-1(3,1)-piperidina-5(1,3)-benzenacyclotetradecaphane-12-yl)butanamide] are 6.30 to 7.00 and above 7.00.
In the same order, the values of `Cc1ccc2cc1CNC(=O)[C@H](CCc1ccccc1)NC(=O)[C@@H](NC(=O)C(C)(CO)CO)CC(=O)N1CCCC(CCO2)C1` (stereo partly drawn) [Compound 286, 3-hydroxy-2-(hydroxymethyl)-2-methyl-N-((9S,12S)-5^4-methyl-8,11,14-trioxo-9-phenethyl-4-oxa-7,10-diaza-1(3,1)-piperidina-5(1,3)-benzenacyclotetradecaphane-12-yl)propanamide] are 6.30 to 7.00 and above 7.00.
For `Cc1ccc2cc1CNC(=O)[C@H](CCc1ccccc1)NC(=O)[C@@H](NC(=O)C1(C)COC1)CC(=O)N1CCCC(CCO2)C1` (stereo partly drawn) [Compound 287, 3-methyl-N-((9S,12S)-5^4-methyl-8,11,14-trioxo-9-phenethyl-4-oxa-7,10-diaza-1(3,1)-piperidina-5(1,3)-benzenacyclotetradecaphane-12-yl)oxetane-3-carboxamide], the pIC50 (in assay [1]; with HT-29 cells) was above 7.00 throughout.
